According to patent publication US20190292174A1, “MICROBIOCIDAL OXADIAZOLE DERIVATIVES” (SYNGENTA PARTICIPATIONS AG, priority 2016, published 2019):

What was measured:
[1] = system: Puccinia recondita f. sp. tritici; experiment: Puccinia recondita f. sp. tritici / wheat / leaf disc preventative (brown rust); assay type: in vivo; settings: foliar, wheat leaf segments cv. Kanzler, preventative (inoculated 1 day after application), compared to untreated control
Protocol: Leaf disks or leaf segments of various plant species are cut from plants grown in a greenhouse. The cut leaf disks or segments are placed in multiwell plates (24-well format) onto water agar. The leaf disks are sprayed with a test solution before (preventative) or after (curative) inoculation. Compounds to be tested are prepared as DMSO solutions (max. 10 mg/ml) which are diluted to the appropriate concentration with 0.025% Tween20 just before spraying. The inoculated leaf disks or segments are incubated under defined conditions (temperature, relative humidity, light, etc.) according to the respective test system. A single evaluation of disease level is carried out 3 to 14 days after inoculation, depending on the pathosystem. Percent disease control relative to the untreated check leaf disks or segments is then calculated. Wheat leaf segments cv. Kanzler are placed on agar in multiwell plates (24-well format) and sprayed with the formulated test compound diluted in water. The leaf disks are inoculated with a spore suspension of the fungus 1 day after application. The inoculated leaf segments are incubated at 19° C. and 75% rh under a light regime of 12 h light/12 h darkness in a climate cabinet and the activity of a compound is assessed as percent disease control compared to untreated when an appropriate level of disease damage appears in untreated check leaf segments (7-9 days after application).

[2] = system: Puccinia recondita f. sp. tritici; experiment: Puccinia recondita f. sp. tritici / wheat / leaf disc curative (brown rust); assay type: in vivo; settings: foliar, 24 h, wheat leaf segments cv. Kanzler, curative (applied 1 day after inoculation), compared to untreated control, read-out: control of Puccinia recondita f. sp. tritic
Protocol: Leaf disks or leaf segments of various plant species are cut from plants grown in a greenhouse. The cut leaf disks or segments are placed in multiwell plates (24-well format) onto water agar. The leaf disks are sprayed with a test solution before (preventative) or after (curative) inoculation. Compounds to be tested are prepared as DMSO solutions (max. 10 mg/ml) which are diluted to the appropriate concentration with 0.025% Tween20 just before spraying. The inoculated leaf disks or segments are incubated under defined conditions (temperature, relative humidity, light, etc.) according to the respective test system. A single evaluation of disease level is carried out 3 to 14 days after inoculation, depending on the pathosystem. Percent disease control relative to the untreated check leaf disks or segments is then calculated. Wheat leaf segments cv. Kanzler are placed on agar in multiwell plates (24-well format). The leaf segments are inoculated with a spore suspension of the fungus. Plates are stored in darkness at 19° C., and 75% rh. The formulated test compound diluted in water is applied 1 day after inoculation. The leaf segments are incubated at 19° C., and 75% rh under a light regime of 12 h light/12 h darkness in a climate cabinet and the activity of a compound is assessed as percent disease control compared to untreated when an appropriate level of disease damage appears in untreated check leaf segments (6-8 days after application).

[3] = system: Phakopsora pachyrhizi; experiment: Phakopsora pachyrhizi / soybean / leaf disc preventative (Asian soybean rust); assay type: in vivo; settings: foliar, soybean leaf disks, compared to untreated control
Protocol: Leaf disks or leaf segments of various plant species are cut from plants grown in a greenhouse. The cut leaf disks or segments are placed in multiwell plates (24-well format) onto water agar. The leaf disks are sprayed with a test solution before (preventative) or after (curative) inoculation. Compounds to be tested are prepared as DMSO solutions (max. 10 mg/ml) which are diluted to the appropriate concentration with 0.025% Tween20 just before spraying. The inoculated leaf disks or segments are incubated under defined conditions (temperature, relative humidity, light, etc.) according to the respective test system. A single evaluation of disease level is carried out 3 to 14 days after inoculation, depending on the pathosystem. Percent disease control relative to the untreated check leaf disks or segments is then calculated. Soybean leaf disks are placed on water agar in multiwell plates (24-well format) and sprayed with the formulated test compound diluted in water. One day after application leaf discs are inoculated by spraying a spore suspension on the lower leaf surface. After an incubation period in a climate cabinet of 24-36 hours in darkness at 20° C., and 75% rh leaf disc are kept at 20° C. with 12 h light/day and 75% rh. The activity of a compound is assessed as percent disease control compared to untreated when an appropriate level of disease damage appears in untreated check leaf disks (12-14 days after application).

[4] = system: Glomerella lagenarium (Colletotrichum lagenarium); experiment: Glomerella lagenarium (Colletotrichum lagenarium) liquid culture / cucumber / preventative (anthracnose); assay type: cell-based; settings: Colletotrichum orbiculare, liquid culture (PDB), growth inhibition measured photometrically 3-4 days after application, compared to untreated control
Protocol: […] fragments or conidia suspensions of a fungus prepared either freshly from liquid cultures of the fungus or from cryogenic storage, are directly mixed into nutrient broth. DMSO solutions of the test compound (max. 10 mg/ml) are diluted with 0.025% Tween20 by a factor of 50 and 10 μl of this solution is pipetted into a microtiter plate (96-well format). The nutrient broth containing the fungal spores/mycelia fragments is then added to give an end concentration of the tested compound. The test plates are incubated in the dark at 24° C., and 96% relative humidity. The inhibition of fungal growth is determined photometrically after 2 to 7 days, depending on the pathosystem, and percent antifungal activity relative to the untreated check is calculated. Conidia of the fungus from cryogenic storage are directly mixed into nutrient broth (PDB potato dextrose broth). Alter placing a (DMSO) solution of test compound into a microtiter plate (96-well format), the nutrient broth containing the fungal spores is added. The test plates are incubated at 24° C., and the inhibition of growth is measured photometrically 3-4 days after application.

melting point: 140 to 160 °C
SMILES: O=C(NN1CCOCC1)c1ccc(-c2noc(C(F)(F)F)n2)cc1F [Compound 1.15, 2-fluoro-N-morpholino-4-[5-(trifluoromethyl)-1,2,4-oxadiazol-3-yl]benzamide]
pest or weed control at 200 ppm [1]: ≥ 80%
pest or weed control at 200 ppm [2]: ≥ 80%
pest or weed control at 200 ppm [3]: ≥ 80%
inhibition of growth at 20 ppm [4]: ≥ 80%
